Assay results: patent US20230301982A1, “N'-(2-CHLORO-6-METHYLBENZOYL)-4-METHYL-3-[2-(3-QUINOLYL)ETHYNYL]-BENZOHYDRAZIDE FOR TREATMENT OF ALZHEIMER'S DISEASE” (SUN PHARMA ADVANCED RESEARCH COMPANY LIMITED, priority 2020, published 2023)
Blank lines part the entries; values can stand above or below the compound they belong to.

Tests used:
[1] = system: K562 cells; test: In-vitro Cell Proliferation Assay (K562 cells; measure of endogenous Bcr-Abl kinase inhibition); assay type: cell-based; conditions: for inhibition at 0.0001 µM: Homo sapiens, read-out: % inhibition (at 0.1 nM), 0.1 nM, cell proliferation of K562 cells
Text: (For experimental procedure, refer to the ‘416 publication under In-vitro Cell Proliferation Assay heading).

[2] = system: Aβ42; test: Estimation of Aβ42 and Aβ42/Aβ40 ratio in TgSwDI mice using ELISA; assay type: in vivo; conditions: o.d., 96 days, TgSwDI mice cortex
Procedure: Female TgSwDI (expresses human APP gene containing Swedish, Dutch, and Iowa mutations) of 5-7 months of age were used for the study. Animals were habituated for handling for one week prior to initiation of dosing. All experiments involving animals were performed in accordance with institutional guidelines for the use and care of animals after approval from the Institutional Animal Ethics Committee (IAEC), Sun Pharma Advanced Research Company (SPARC) Ltd. Mice were housed at an ambient temperature of 25° C. under 12 hours light-dark cycle with free access to food chow and drinking water. Animals were treated with assigned treatments p.o., o.d., for a period of 96 days. […] After completion of treatment phase, mice from each treatment group were perfused with ice-cold phosphate buffered saline (PBS, pH 7.4), brain was excised, cortex was isolated and processed for preparation of lysates as per protocol provided by Invitrogen ELISA kit. Estimation of Aβ42 and Aβ40 were carried out as per the instructions provided by Invitrogen user manual. Ratio of Aβ42/40 was calculated.

[3] = system: Tg APP/PS1 mice; test: Contextual fear conditioning (CFC): freezing behaviour in Tg APP/PS1 mice; assay type: in vivo; conditions: 24 hours after fear conditioning
Procedure: (§1) Six month old male APP/PS1 mice which show little overt behavioral or pathological phenotype of AD were used. All experiments involving animals were performed in accordance with institutional guidelines for the use and care of animals after approval from the Institutional Animal Ethics Committee (IAEC), Central Animal Facility, Indian Institute of Science. Only male mice were used for the study and were housed at ambient temperature of 25° C. under 12 hours light-dark cycle with free access to food chow and drinking water. All mice were dosed once a day, orally with placebo for Compound 1 at 30 and 45 mg/kg for a period of three months.
(§2) After completion of treatment phase, mice were subjected to behavioural assessment using CFC test, followed by biochemical estimation of brain Aβ using an enzyme-linked immunosorbent assay (ELISA) and Aβ plaque load using Immunohistochemistry (IHC).
The CFC test was performed using an apparatus from San Diego Instruments (CA, USA). The CFC training context was rectangular in shape, identity of the context was maintained with the presence of distinct odor (2% acetic acid, v/v). The conditioning chamber was cleaned with 70% ethanol before and after each session. […] Contextual fear memory was assessed by returning mice to the training context 24 hours after fear conditioning and analyzing freezing during a test period of 2 minutes. […]

[4] = system: ECG parameters (QT interval, QTc interval, QTCf interval and heart rate); test: in vivo effect on ECG parameters in conscious beagle dogs; conditions: at a therapeutically effective dose
[5] = system: total Aβ; test: Total Aβ content in cortex of Tg APP/PS1 mice using ELISA; assay type: in vivo
Procedure: as §1, §2
The animals were (n=10/treatment) deeply anesthetized with a mixture of xylazine and ketamine (1:8), perfused with 10 mL of 1x saline for 4 minutes, their brains were excised, homogenized immediately in 0.5 mL ELISA buffer, and centrifuged at 5000xg for 15 minutes at 4° C. to precipitate the pellet. Total Aβ was estimated in the cortex of APP/PS1 mice using ELISA assay kit as per the manufacturer instruction.

[6] = target: hERG channel (Homo sapiens, UniProt Q12809); test: in vitro effect on hERG channel; conditions: at a therapeutically effective dose
[7] = system: ECG parameters (QT interval, QTc interval, QTCf interval and heart rate); test: in vivo effect on ECG parameters in guinea pig; conditions: at a therapeutically effective dose
[8] = system: Aβ plaque; test: Aβ plaque load (% area fraction) in cortex of Tg APP/PS1 mice using IHC; assay type: in vivo; conditions: 30 mg/kg orally once a day for three months
Procedure: as §1, §2
Mouse brains (n=5/treatment) were fixed in 4% (w/v) buffered paraformaldehyde (PFA). The brain tissues were processed for paraffin embedding and serial sections ([…]) were cut using microtome (Leica Biosystems Inc., Buffalo Grove, IL, USA). Sections were de-waxed by xylene treatment followed by a brief wash with chloroform to remove the residual xylene. Endogenous peroxidase activity was blocked with methanol containing hydrogen peroxide (3%, v/v) for 30 minutes. […]

[9] = Concentration of compounds in brain and plasma; assay type: in vivo
[10] = 30 mg/kg orally once a day for three months
[11] = 45 mg/kg orally once a day for three months

Chain of hERG channel (Q12809 whole entry): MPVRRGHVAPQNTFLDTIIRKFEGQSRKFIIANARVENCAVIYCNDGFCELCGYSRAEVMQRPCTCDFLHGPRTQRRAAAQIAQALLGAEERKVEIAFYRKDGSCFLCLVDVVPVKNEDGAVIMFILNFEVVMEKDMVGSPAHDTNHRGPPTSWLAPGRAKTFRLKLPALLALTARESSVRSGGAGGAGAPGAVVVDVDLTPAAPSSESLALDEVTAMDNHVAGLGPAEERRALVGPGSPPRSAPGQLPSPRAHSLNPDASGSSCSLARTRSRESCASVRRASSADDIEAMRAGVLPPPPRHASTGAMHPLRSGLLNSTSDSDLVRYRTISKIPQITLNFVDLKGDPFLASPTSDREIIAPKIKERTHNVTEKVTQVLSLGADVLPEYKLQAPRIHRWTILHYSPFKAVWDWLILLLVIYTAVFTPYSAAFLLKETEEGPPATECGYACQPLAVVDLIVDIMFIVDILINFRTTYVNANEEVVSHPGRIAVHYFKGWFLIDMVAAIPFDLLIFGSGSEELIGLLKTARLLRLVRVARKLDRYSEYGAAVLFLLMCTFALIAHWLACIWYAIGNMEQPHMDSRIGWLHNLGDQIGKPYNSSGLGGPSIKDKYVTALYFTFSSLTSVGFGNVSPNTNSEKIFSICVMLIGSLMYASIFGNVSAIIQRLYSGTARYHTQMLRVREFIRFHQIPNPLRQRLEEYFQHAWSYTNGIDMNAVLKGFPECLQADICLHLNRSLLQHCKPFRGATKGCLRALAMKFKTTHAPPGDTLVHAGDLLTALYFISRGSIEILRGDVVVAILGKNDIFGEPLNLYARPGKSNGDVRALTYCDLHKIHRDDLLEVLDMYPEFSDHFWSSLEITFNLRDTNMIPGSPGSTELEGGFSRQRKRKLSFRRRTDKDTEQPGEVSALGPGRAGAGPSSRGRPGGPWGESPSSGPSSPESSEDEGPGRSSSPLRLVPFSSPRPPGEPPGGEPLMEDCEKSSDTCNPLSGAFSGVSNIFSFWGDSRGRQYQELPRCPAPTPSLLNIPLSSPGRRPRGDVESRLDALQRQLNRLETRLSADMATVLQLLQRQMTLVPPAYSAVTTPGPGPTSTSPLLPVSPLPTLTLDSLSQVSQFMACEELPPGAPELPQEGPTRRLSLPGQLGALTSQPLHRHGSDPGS

SMILES: Cc1ccc(C(=O)NNC(=O)c2c(C)cccc2Cl)cc1C#Cc1cnc2ccc(Cl)cc2c1 [Compound 1.50 of the ‘416 publication]
inhibition at 0.0001 µM [1]: 0%

SMILES: Cc1ccc(C(=O)NNC(=O)c2c(C)cccc2Cl)cc1C#Cc1cnc2ccc(F)cc2c1 [Compound 1.55 of the ‘416 publication]
inhibition at 0.0001 µM [1]: 0%

SMILES: Cc1cn(-c2cc(NC(=O)c3ccc(C)c(Nc4nccc(-c5cccnc5)n4)c3)cc(C(F)(F)F)c2)cn1 [Nilotinib, nilotinib, reference compound]
effect on Aβ42 content compared to placebo group ([2]; 30 mg/kg p.o.): no statistically significant reduction

higher ratio of brain to plasma concentration compared to nilotinib ([9]; at 1 hour, versus nilotinib): about 40 times
brain penetration compared with dasatinib ([9]; versus dasatinib): significantly better brain penetration
ratio of concentration in brain to plasma as compared to nilotinib or dasatinib ([9]; versus nilotinib or dasatinib): significantly higher
SMILES: Cc1ccc(C(=O)NNC(=O)c2c(C)cccc2Cl)cc1C#Cc1cnc2ccccc2c1 [Compound 1, N′-(2-chloro-6-methylbenzoyl)-4-methyl-3-[2-(3-quinolyl)ethynyl]-benzohydrazide]
inhibition at 0.0001 µM [1]: 37%
potency (inhibition of K562 cell proliferation) ([1]; at 0.1 nM, Compound 1 versus similar compounds from the ‘416 publication): significantly higher
% freezing of mice (CFC) compared to placebo treated group [3, 10]: significant increase
% freezing of mice (CFC) compared to placebo treated group [3, 11]: significant increase
cardiovascular side effects: in vivo effect on ECG parameters (QT, QTc, QTCf interval, heart rate) [4]: devoid of cardiovascular side effects
total Aβ content in cortex compared to placebo treated group [5, 10]: significant reduction
total Aβ content in cortex compared to placebo treated group [5, 11]: significant reduction
cardiovascular side effects: in vitro effect on hERG channel [6]: devoid of cardiovascular side effects
cardiovascular side effects: in vivo effect on ECG parameters (QT, QTc, QTCf interval, heart rate) [7]: devoid of cardiovascular side effects
Aβ plaque (% area fraction) in cortex compared to placebo [8]: significantly reduced
effect on Aβ42 content compared to placebo group ([2]; 30 mg/kg p.o.): statistically significant
effect on Aβ42 content compared to placebo group ([2]; 45 mg/kg p.o.): statistically significant
Aβ42/Aβ40 ratio, trend over doses ([2]; 15, 30, and 45 mg/kg p.o.): dose-dependent reduction
Aβ42 content, trend over doses ([2]; 15, 30, and 45 mg/kg p.o.): dose-dependent reduction

SMILES: Cc1cccc(Cl)c1C(=O)NNC(=O)c1cccc(C#Cc2cnc3ccccc3c2)c1 [Compound 1.59 of the ‘416 publication]
inhibition at 0.0001 µM [1]: 2%

SMILES: Cc1cccc(Cl)c1C(=O)NNC(=O)c1ccc(F)c(C#Cc2cnc3ccccc3c2)c1 [Compound 1.21 of the ‘416 publication]
inhibition at 0.0001 µM [1]: 6%

SMILES: Cc1ccc(C(=O)NNC(=O)c2c(C)cccc2Cl)cc1C#Cc1ccc2ncccc2c1 [Compound 1.10 of the ‘416 publication]
inhibition at 0.0001 µM [1]: 0%
